# Measured values taken from a melting point compilation (Tetko et al.; mined from patent text by program, amines drawn as free bases though some values may be those of a salt).
row,melting point [°C],Structure (SMILES)
1,171 to 172,Cc1nc(N2C(=O)N(Cc3ccc(C(F)(F)F)cc3)CC2O)sc1C(=O)NCc1cccnc1 (stereo unspecified)
2,83 to 84,COC(=O)C1COc2ccccc2C1 (stereo unspecified)
3,130 to 131,O=C(Nc1ccc(Cl)c(C(F)(F)F)c1)c1ccccc1
4,58 to 77,COc1ccc(C(=O)N2CCc3cc(O)ccc3C2)cc1OC
5,221 to 222,COc1ccc(C(=O)Nc2ccccc2)cc1Nc1ccc(C2=NC(C)(C)CO2)cc1
6,155 to 160,CCC(C)(N=NC(C)(CC)NC(=O)NNC(C)(C)C)NC(=O)NNC(C)(C)C (stereo unspecified)
7,156 to 159,N#Cc1cc(-c2ccoc2)c2ccc(COc3cc(F)cc(-c4ccoc4)c3)cc2n1
8,144 to 146,CCc1cn(C2CC(O)C(CNCc3ccccc3Br)O2)c(=O)[nH]c1=O (stereo unspecified)
9,143 to 145,CC(C)c1ccc([N+](=O)[O-])c(C(C)C)c1NC(=O)CN1CCN(CCSc2nc3ccccc3o2)CC1
10,> 270,CN1CCC(C2=C(C#N)C(c3ccccc3Cl)c3c[nH]nc3N2)CC1 (stereo unspecified)
11,91 to 92,COC(=O)c1ccc(C2CCC(=O)CC2)cc1
12,123 to 126,COCCOC(=O)C1=C(C)NC(C)C(C(=O)OC(C)C)(c2ccc(F)cc2F)C1 (stereo unspecified)
13,180 to 181,COc1ccc(-c2c(N)cnc3ccc(Cl)cc23)c(OC)c1OC
14,130 to 132,CC(N)CC(=O)Nc1ccc(Nc2ccccc2)cc1 (stereo unspecified)
15,58,CCCCCCCCC#CCCCCCCCCCCCC(=O)O
16,162 to 163,CC(C)CCCC(C)(C)NC(=O)CN1C(=O)c2ccccc2C1=O
17,52,COc1ccc(CCS(=O)(=O)CC2CCC2)cc1
18,196 to 198,O=C1C2=C(CCCC2)C(=O)N1c1cccc(O)c1
19,229 to 231,CC(=O)N1CCn2c1c(-c1ccccc1)c1ncccc1c2=O
20,138,COc1nc(NCCc2ccccc2)c2cc(C)sc2n1
21,64.6 to 65.2,CC(CNC(=O)Nc1ccc([N+](=O)[O-])cc1O)OCc1ccccc1 (stereo unspecified)
22,110,CC(C)(C)OC(=O)[C@@H]1CS[C@H](c2ccccc2F)N1C(=O)CNC(=O)Nc1cccc(CC(=O)O)c1
23,174 to 175,COc1ccc(C(=O)Nc2ccccc2)cc1NC(=S)Nc1ccc(Cl)c([N+](=O)[O-])c1

row,melting point [°C],Structure (SMILES)
1,247 to 248,N#CCc1cc2c(-c3ccccc3)c(CC(=O)Nc3ccc(Cl)cc3C(F)(F)F)c(=O)oc2cc1Cl
2,101,CCCCCCCc1ccc(C(=O)CCCC(=O)O)cc1
3,106 to 115,CC(C)(C)OC(=O)Nc1cnc(F)cc1C(=O)CC#N
4,208 to 209,COc1cc2c(c3c1OC(C)(C)C3)C(c1cccc(O)c1)=NC(C)(C)C2
5,78 to 80,CCCCCC(=O)c1ccc(OCc2ccc3ccccc3n2)cc1
6,84,CCc1cccc(N2C(=S)SCC2(O)CC)n1 (stereo unspecified)
7,192 to 193,CCn1ncc2c(Cl)c(C(N)=O)cnc21
8,242 to 247,Cc1ccc(C(=O)Nc2cc(-n3ccnc3C)cc(C(F)(F)F)c2)cc1Nc1nccc(-c2cccnc2)n1
9,115,CCCCCS(=O)(=O)NC(=O)CCc1ccc(OCCCOC)cc1Oc1ncc(C(F)(F)F)cc1Cl
10,220 to 221,O=C(O)Cc1ccc2c(c1)sc1ccc(Cl)cc12
11,221 to 222,CCN1C(=O)C(C)Oc2ccc(-n3c(=O)cc(C(F)(F)F)n(C)c3=O)cc21 (stereo unspecified)
12,141,COc1cc(N)c(Cl)cc1C(=O)N[C@H]1CCN(CCNc2nccs2)C[C@H]1OC (relative stereo)
13,63 to 65,CCOC(=O)CC(NC(=O)c1cccc(Cl)c1)C(=O)c1ccsc1 (stereo unspecified)
14,196 to 198,COc1cc(N2CCCC2)ncc1NC(=O)c1cc2cc(F)ccc2n1Cc1cccc(F)c1
15,175 to 179,O=C(Nc1cc(-c2ccnc3c(C(=O)c4cccs4)cnn23)ccc1F)c1ccncc1
16,165 to 166,CCCCOP(=O)(OCCCC)C(Sc1cc(F)ccc1O)=P(OCCCC)(OCCCC)OCCCC
17,152 to 153,CCOC(=O)Cc1oc(-n2cnc3ccccc32)nc1-c1ccc(Cl)cc1
18,131 to 132,COc1ccc(-c2cnc3c(-c4ccccc4)nc(-c4cccc(OC)c4)nc3c2)cc1
19,257 to 259,CC1(C)CC(=O)c2c(ncc3[nH]c4cc(Cl)ccc4c23)C1
20,186 to 187,Clc1cccc(CN(c2ncnc3[nH]ncc23)C2CCCC2)c1
21,81 to 83,C=CCC1C(=O)N(Cc2ccccc2)c2ccccc2NC1C (stereo unspecified)
22,192 to 193,COc1ccnc(-c2ccccc2S(=O)c2nc3cc(N)ccc3[nH]2)c1 (stereo unspecified)
23,192,N#Cc1ccc(-c2cncc(OC3SCC(O)C(O)C3O)c2)cc1C#N (stereo unspecified)

row,melting point [°C],Structure (SMILES)
1,43.2 to 46.8,CCCCC(=NO)C(=O)OCC
2,187 to 190,O=C(NCc1ccc(F)cc1-n1cncn1)c1nc2n(c(=O)c1OCc1ccccc1)CCN2c1ccccc1
3,208 to 209,CCOC(=O)COc1ccc(C(=O)Nc2cccc(F)c2Sc2ccccc2-c2nnn[nH]2)cc1
4,98 to 100,CC(C)(NC(N)=O)C(=O)NCCO[N+](=O)[O-]
5,144 to 145,CC(C(=O)O)c1ccc(-c2ccccc2)cc1 (stereo unspecified)
6,110 to 112,COC(=O)c1cc(O)ccc1OC
7,121,CC(=O)Oc1ccc(C(=O)N2CCN(CC(C)(C)S)CC2)cc1
8,216 to 220,COc1ccc(/C=C/c2ccc3c(Nc4cc(OC)c(Cl)cc4Cl)c(C#N)cnc3c2)cc1
9,90 to 91,COc1cc(C=C(Cl)Cl)nc(N)n1
10,184 to 204,COc1ccc(-c2ccncc2)cc1-c1cccc(Oc2ccccc2)c1
11,66 to 70,CCOCCc1cc(C)c(OCC=NO)cc1C
12,243 to 244,O=C(O)c1ccc2cc(OCCC(c3ccccc3)(c3ccccc3)c3ccccc3)ccc2c1
13,151 to 153,O=[N+]([O-])c1c(SCc2ccccc2)ccc2ccncc12
14,98 to 100,CCS(=O)(=O)NC(=O)CCCCC1CCSS1 (stereo unspecified)
15,194 to 195,CC1(C)CCC(C)(C)C2=C1CC(C(=O)Oc1ccc(C(=O)O)cc1)C2
16,102 to 103,COc1cc2c(cc1Cl)C(C)(C)C(CC=O)C2=O (racemic)
17,287 to 289,CC1Cc2c(N3CCN(CC(F)(F)F)CC3)c(F)cc3c(=O)c(C(=O)O)cn1c23 (stereo unspecified)
18,140 to 142,FC(F)(F)c1ccc2c(c1)N(C1=CCCN1C1=NCCC1)c1ccccc1O2
19,72 to 75,O=C(NCCCCCCO)Oc1ccc(Oc2ccccc2)cc1
20,73 to 74,COc1ccc(NCc2cc(OC)c(OC)c(OC)c2)cc1
21,124 to 126,CCOC(=O)Cc1nn(Cc2ccc(Br)c(Cl)c2)c(=S)c2ccccc12

row,Structure (SMILES),melting point [°C]
1,CC(=O)NN1CCN(CCc2c[nH]c3ccccc23)CC1,183 to 186
2,O=C(NC1CN2CCC1CC2)c1cc(Cl)cc2oc(-c3ccccc3)nc12 (stereo unspecified),180 to 183
3,[O-][N+]1=C(c2ccccc2F)c2cc(Cl)ccc2NC(C(=NO)N2CCOCC2)C1 (stereo unspecified),184 to 186
4,CN1C(=O)[C@H](NC(=O)/C=C/c2ccc(F)cc2F)N=C(c2ccccc2)c2ccccc21,121 to 123
